Data taken from the supplement of paper PMC10920090.

Experiments:
[1] = test system: MDA-MB-231; test: drug sensitivity score (DSS), cytotoxicity CellTox Green; higher = more cytotoxic; extreme values may be limits of the assay; details: 72 h
[2] = test system: MDA-MB-231; test: drug sensitivity score (DSS), cell viability CellTiter-Glo; higher = more sensitive; extreme values may be limits of the assay; details: 72 h
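For drug sensitivity score (DSS), cytotoxicity CellTox Green in this document: DSS summarises each dose–response curve by combining IC50, EC50, maximal inhibition and efficacy across drug concentrations.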

| Compound | drug sensitivity score ([1]; shRNA: shPPFIA1_1) | drug sensitivity score ([1]; shRNA: shScramble) | drug sensitivity score ([2]; shRNA: shPPFIA1_1) | drug sensitivity score ([2]; shRNA: shScramble) |
| --- | --- | --- | --- | --- |
| Cn1cc(C2=C(c3cn(C4CCN(Cc5ccccn5)CC4)c4ccccc34)C(=O)NC2=O)c2ccccc21 [Enzastaurin] | 0 DSS | 0 DSS | 5.6 DSS | 2.8 DSS |
| NS(=O)(=O)NCCNc1nonc1/C(=N/O)Nc1ccc(F)c(Br)c1 [Epacadostat] | 0 DSS | 0 DSS | 0 DSS | 0 DSS |
| C[C@]12CC[C@@H]3c4ccc(OC(=O)N(CCCl)CCCl)cc4CC[C@H]3[C@@H]1CC[C@@H]2O [Estramustine] | 0 DSS | 0 DSS | 0 DSS | 0 DSS |
| COc1cc([C@@H]2c3cc4c(cc3[C@@H](O[C@@H]3O[C@@H]5CO[C@@H](C)O[C@H]5[C@H](O)[C@H]3O)[C@H]3COC(=O)[C@H]23)OCO4)cc(OC)c1O [Etoposide] | 1.6 DSS | 1.8 DSS | 0 DSS | 2 DSS |
| C=C1C[C@@H]2[C@H](CC[C@]3(C)C(=O)CC[C@@H]23)[C@@]2(C)C=CC(=O)C=C12 [Exemestane] | 0 DSS | 0 DSS | 0 DSS | 1.4 DSS |
| Cc1nc(C(=O)NCC(=O)O)c(O)c2ccc(Oc3ccccc3)cc12 [FG-4592] | 0 DSS | 0 DSS | 2.2 DSS | 2.9 DSS |
| CCn1c(=O)c(-c2ccc(Cl)cc2Cl)cc2cnc(Nc3ccc(N4CCNCC4)c(F)c3)nc21 [FRAX486] | 0 DSS | 0 DSS | 0 DSS | 2.8 DSS |
| O=S(=O)(c1cccc2cnccc12)N1CCCNCC1 [Fasudil] | 1.6 DSS | 2.1 DSS | 2.6 DSS | 1.4 DSS |
| Cc1cnc(Nc2ccc(OCCN3CCCC3)cc2)nc1Nc1cccc(S(=O)(=O)NC(C)(C)C)c1 [Fedratinib] | 2.2 DSS | 5.7 DSS | 1.9 DSS | 9.2 DSS |
| CON(C)C(=O)N1N=C(c2cc(F)ccc2F)S[C@@]1(CCCN)c1ccccc1 [Filanesib] | 14.1 DSS | 9.3 DSS | 0 DSS | 8.4 DSS |
| O=C(Nc1nc2cccc(-c3ccc(CN4CCS(=O)(=O)CC4)cc3)n2n1)C1CC1 [Filgotinib] | 0 DSS | 0 DSS | 0 DSS | 0.2 DSS |
| CC(C)(C)NC(=O)[C@H]1CC[C@H]2[C@@H]3CC[C@H]4NC(=O)C=C[C@]4(C)[C@H]3CC[C@]12C [Finasteride] | 0 DSS | 0 DSS | 0 DSS | 0 DSS |
| CCCCCCCCc1ccc(CCC(N)(CO)CO)cc1 [Fingolimod] | 6.7 DSS | 6.8 DSS | 7.5 DSS | 8 DSS |
| O=c1[nH]c(=O)n([C@H]2C[C@H](O)[C@@H](CO)O2)cc1F [Floxuridine] | 0 DSS | 0.2 DSS | 14.6 DSS | 19.7 DSS |
| Nc1nc(F)nc2c1ncn2[C@@H]1O[C@H](CO)[C@@H](O)[C@@H]1O [Fludarabine] | 0 DSS | 0 DSS | 0.4 DSS | 2.5 DSS |
| O=c1[nH]cc(F)c(=O)[nH]1 [Fluorouracil] | 0 DSS | 0 DSS | 0 DSS | 0.6 DSS |
| CC(C)C(=O)Nc1ccc([N+](=O)[O-])c(C(F)(F)F)c1 [Flutamide] | 0 DSS | 0 DSS | 0 DSS | 0.3 DSS |
| COc1cc2c(Oc3ccc(NC(=O)C4(C(=O)Nc5ccc(F)cc5)CC4)cc3F)ccnc2cc1OCCCN1CCOCC1 [Foretinib] | 0 DSS | 0 DSS | 0 DSS | 2.2 DSS |
| COc1cc(Nc2ncc(F)c(Nc3ccc4c(n3)N(COP(=O)(O)O)C(=O)C(C)(C)O4)n2)cc(OC)c1OC [Fostamatinib] | 1.6 DSS | 0.8 DSS | 1 DSS | 5.3 DSS |
| C[C@]12CC[C@@H]3c4ccc(O)cc4C[C@@H](CCCCCCCCC[S+]([O-])CCCC(F)(F)C(F)(F)F)[C@H]3[C@@H]1CC[C@@H]2O (some centres not stated) [Fulvestrant] | 0 DSS | 0 DSS | 0 DSS | 0 DSS |
| Cn1nccc1Nc1nccc(-c2ccn([C@H](CO)c3ccc(Cl)c(F)c3)c(=O)c2)n1 [GDC-0994] | 0 DSS | 3 DSS | 0 DSS | 3.5 DSS |

| Compound | drug sensitivity score ([1]; shRNA: shPPFIA1_1) | drug sensitivity score ([1]; shRNA: shScramble) | drug sensitivity score ([2]; shRNA: shPPFIA1_1) | drug sensitivity score ([2]; shRNA: shScramble) |
| --- | --- | --- | --- | --- |
| CNc1nc(Nc2cn(C(C)(C)C#N)nc2C)ncc1C(F)(F)F [GNE-0877] | 0 DSS | 0 DSS | 0 DSS | 0 DSS |
| CCNc1nc(Nc2cc(F)c(C(=O)N3CCOCC3)cc2OC)ncc1C(F)(F)F [GNE-7915] | 0 DSS | 0 DSS | 0 DSS | 0 DSS |
| CCCc1cc(C)[nH]c(=O)c1CNC(=O)c1cc(-c2ccnc(N3CCN(C)CC3)c2)cc2c1cnn2C(C)C [GSK343] | 3.8 DSS | 1.9 DSS | 6 DSS | 3.1 DSS |
| CCCOc1ccn2c(C(C)=O)cc(-c3ccccc3S(C)(=O)=O)c2c1 [GSK2801] | 0 DSS | 0 DSS | 0 DSS | 0 DSS |
| CCOC(=O)CCNc1cc(N2CCc3ccccc3CC2)nc(-c2ccccn2)n1 [GSK-J4] | 7.4 DSS | 8.3 DSS | 10.2 DSS | 11.3 DSS |
| C[C@@H]1C=C2C(=O)O[C@@H]3CC[C@H](C1)[C@]23O [Galiellalactone] | 2.9 DSS | 1.8 DSS | 0.2 DSS | 2.1 DSS |
| Cc1cccc(-c2nn3c(c2-c2ccnc4ccc(C(N)=O)cc24)CCC3)n1 [Galunisertib] | 0 DSS | 0 DSS | 0 DSS | 0 DSS |
| Cc1cc(Nc2cc(CN3CCOCC3)c3nc(C)c(Cc4ccc(Cl)cc4F)n3n2)n[nH]1 [Gandotinib] | 2.1 DSS | 1.7 DSS | 1.6 DSS | 4.4 DSS |
| CC(C)c1cc(-c2n[nH]c(=O)n2-c2ccc3c(ccn3C)c2)c(O)cc1O [Ganetespib] | 1.2 DSS | 3 DSS | 9.9 DSS | 11.5 DSS |
| CN(C)C1CCN(C(=O)c2ccc(NC(=O)Nc3ccc(-c4nc(N5CCOCC5)nc(N5CCOCC5)n4)cc3)cc2)CC1 [Gedatolisib] | 0 DSS | 0 DSS | 7.2 DSS | 20.8 DSS |
| Nc1ccn([C@@H]2O[C@H](CO)[C@@H](O)C2(F)F)c(=O)n1 [Gemcitabine] | 0.3 DSS | 0 DSS | 1.3 DSS | 8.6 DSS |
| CCN(CC)Cc1ccc2cc(COC(=O)Nc3ccc(C(=O)NO)cc3)ccc2c1 [Givinostat] | 2.4 DSS | 3.4 DSS | 0.9 DSS | 4 DSS |
| CN1CC[C@@H](NC(=O)Nc2ccc(C#N)cc2)C[C@@H]1c1nc2ccccc2[nH]1 [Glasdegib] | 0 DSS | 0 DSS | 0 DSS | 0 DSS |
| CN1CCN(C2CCN(C(=O)Nc3cc(Oc4ccc(NC(=O)C5(C(=O)Nc6ccc(F)cc6)CC5)c(F)c4)ccn3)CC2)CC1 [Golvatinib] | 0 DSS | 0 DSS | 0.2 DSS | 2 DSS |
| CC(C)C[C@H](NC(=O)[C@@H](COC(C)(C)C)NC(=O)[C@H](Cc1ccc(O)cc1)NC(=O)[C@H](CO)NC(=O)[C@H](Cc1c[nH]c2ccccc12)NC(=O)[C@H](Cc1cnc[nH]1)NC(=O)[C@@H]1CCC(=O)N1)C(=O)N[C@@H](CCCNC(=N)N)C(=O)N1CCC[C@H]1C(=O)NNC(N)=O [Goserelin] | 0 DSS | 0 DSS | 0 DSS | 0 DSS |
| O=S(=O)(c1cccc2c(O)nccc12)N1CCCNCC1 [Hydroxyfasudil] | 0 DSS | 0 DSS | 0 DSS | 0 DSS |
| NC(=O)NO [Hydroxyurea] | 0 DSS | 0 DSS | 0 DSS | 0 DSS |
| COc1cc2c(cc1-c1c(C)noc1C)ncc1[nH]c(=O)n([C@H](C)c3ccccn3)c12 [I-BET151] | 0 DSS | 0 DSS | 0 DSS | 6.1 DSS |
| O=C(O)c1ccc(O)c2ncccc12 [IOX-1] | 0 DSS | 0 DSS | 0 DSS | 0 DSS |
| O=C(O)CNC(=O)c1c(O)c2ccccc2n(Cc2ccccc2)c1=O [IOX-2] | 0 DSS | 0 DSS | 5 DSS | 4 DSS |
| C=CC(=O)N1CCC[C@@H](n2nc(-c3ccc(Oc4ccccc4)cc3)c3c(N)ncnc32)C1 [Ibrutinib] | 0 DSS | 0 DSS | 0 DSS | 0 DSS |

| Compound | drug sensitivity score ([1]; shRNA: shPPFIA1_1) | drug sensitivity score ([1]; shRNA: shScramble) | drug sensitivity score ([2]; shRNA: shPPFIA1_1) | drug sensitivity score ([2]; shRNA: shScramble) |
| --- | --- | --- | --- | --- |
| C#Cc1cccc(Nc2ncnc3cc4c(cc23)OCCOCCOCCO4)c1 [Icotinib] | 0 DSS | 0 DSS | 6.2 DSS | 3 DSS |
| CC(=O)[C@]1(O)Cc2c(O)c3c(c(O)c2[C@@H](O[C@H]2C[C@H](N)[C@H](O)[C@H](C)O2)C1)C(=O)c1ccccc1C3=O [Idarubicin] | 6.6 DSS | 7.5 DSS | 6.4 DSS | 10.7 DSS |
| COc1cc(C(=O)O)ccc1NC(=O)[C@@H]1N[C@@H](CC(C)(C)C)[C@](C#N)(c2ccc(Cl)cc2F)[C@H]1c1cccc(Cl)c1F [Idasanutlin] | 2.6 DSS | 0.6 DSS | 0 DSS | 0 DSS |
| CC[C@H](Nc1ncnc2[nH]cnc12)c1nc2cccc(F)c2c(=O)n1-c1ccccc1 [Idelalisib] | 0 DSS | 0 DSS | 0 DSS | 0.9 DSS |
| O=P1(NCCCl)OCCCN1CCCl (configuration not stated) [Ifosfamide] | 0 DSS | 0 DSS | 0 DSS | 0 DSS |
| Cc1ccc(NC(=O)c2ccc(CN3CCN(C)CC3)cc2)cc1Nc1nccc(-c2cccnc2)n1 [Imatinib] | 1.4 DSS | 0 DSS | 1.5 DSS | 0 DSS |
| CC(C)Cn1cnc2c(N)nc3ccccc3c21 [Imiquimod] | 0.9 DSS | 0 DSS | 0 DSS | 2.7 DSS |
| O=C(Nc1ccncc1)C(=O)c1cn(Cc2ccc(Cl)cc2)c2ccccc12 [Indibulin] | 2.3 DSS | 0 DSS | 0 DSS | 3.1 DSS |
| NC(=O)c1ccc(I)c([N+](=O)[O-])c1 [Iniparib] | 0 DSS | 0 DSS | 0 DSS | 0 DSS |
| CC(C)NC[C@@H](C(=O)N1CCN(c2ncnc3c2[C@H](C)C[C@H]3O)CC1)c1ccc(Cl)cc1 [Ipatasertib] | 0 DSS | 0 DSS | 3.3 DSS | 3.7 DSS |
| CCc1c2c(nc3ccc(OC(=O)N4CCC(N5CCCCC5)CC4)cc13)-c1cc3c(c(=O)n1C2)COC(=O)[C@]3(O)CC [Irinotecan] | 0 DSS | 0 DSS | 0 DSS | 0.3 DSS |
| CCC(C)n1ncn(-c2ccc(N3CCN(c4ccc(OCC5COC(Cn6cncn6)(c6ccc(Cl)cc6Cl)O5)cc4)CC3)cc2)c1=O (configuration not stated) [Itraconazole] | 0 DSS | 0 DSS | 4.8 DSS | 5.6 DSS |
| C/C(=C\c1csc(C)n1)[C@@H]1C[C@@H]2O[C@]2(C)CCC[C@H](C)[C@H](O)[C@@H](C)C(=O)C(C)(C)[C@@H](O)CC(=O)N1 [Ixabepilone] | 3.8 DSS | 3.1 DSS | 0 DSS | 5 DSS |
| CCCNC(=O)Nc1ccc(Oc2ncnc3cc(OC)c(OC)cc23)cc1Cl [KRN-633] | 0 DSS | 0 DSS | 0 DSS | 0.9 DSS |
| O=C(c1ccc(/C=C/c2n[nH]c3ccccc23)cc1)N1CCNCC1 [KW-2449] | 0 DSS | 0 DSS | 0 DSS | 0 DSS |
| O=C(Cc1ccc(-c2ccc(OCCN3CCOCC3)cc2)cn1)NCc1ccccc1 [KX2-391] | 5.5 DSS | 1.8 DSS | 2.1 DSS | 8.2 DSS |
| CN[C@@H](C)C(=O)N[C@H](C(=O)N1CCC[C@H]1c1nc(C(=O)c2ccc(F)cc2)cs1)C1CCCCC1 [LCL161] | 40.9 DSS | 24.4 DSS | 20.5 DSS | 2.5 DSS |
| CS(=O)(=O)CCNCc1ccc(-c2ccc3ncnc(Nc4ccc(OCc5cccc(F)c5)c(Cl)c4)c3c2)o1 [Lapatinib] | 0 DSS | 0 DSS | 0 DSS | 0 DSS |
| Oc1ccc2c(c1)CC[C@H](c1ccccc1)[C@@H]2c1ccc(OCCN2CCCC2)cc1 [Lasofoxifene] | 0 DSS | 0 DSS | 0 DSS | 0.4 DSS |
| Nc1cccc2c1CN(C1CCC(=O)NC1=O)C2=O (configuration not stated) [Lenalidomide] | 0 DSS | 0 DSS | 0 DSS | 0 DSS |
| COc1cc2nccc(Oc3ccc(NC(=O)NC4CC4)c(Cl)c3)c2cc1C(N)=O [Lenvatinib] | 0 DSS | 0 DSS | 0 DSS | 0 DSS |
